Earlier results, collected in patent US20080009419A1, “GENETIC MODELS FOR STRATIFICATION OF CANCER RISK” (INTERGENETICS, INC., priority 2006, published 2008).
Where two headings read alike, the source gives them in different places.

How the values were obtained:
[1] = following chronic dosing
[2] = system: invasive breast cancer incidence; conditions: postmenopausal women at high risk, by mouth once a day
estrogen receptors [3] = conditions: preclinical data
[4] = system: incidence of breast cancer; conditions: large osteoporosis prevention and treatment study
[5] = for range of peak plasma concentration: single oral dose of 20 mg tamoxifen
estrogen receptors [6] = conditions: animal test systems
[7] = system: rat mammary carcinoma induced by dimethylbenzanthracene (DMBA); conditions: rats
[8] = 10 mg tamoxifen twice daily for 3 months, patients
[9] = 20 mg tamoxifen once daily for 3 months

Structure (SMILES)	reduction in invasive breast cancer incidence [2]	range of steady-state plasma concentration [5, 8]	range of steady-state plasma concentration [5, 9]	range of peak plasma concentration [5]	other results
O=C(c1ccc(OCCN2CCCCC2)cc1)c1c(-c2ccc(O)cc2)sc2cc(O)ccc12 [Raloxifene]	50%	–	–	–	clearance [1]: 40 to 60 L/kg per hour; estrogen antagonism in uterine and breast tissues (estrogen receptors [3]): estrogen antagonist; incidence of breast cancer [4]: shown to reduce the incidence of breast cancer
CC/C(=C(\c1ccccc1)c1ccc(OCCNC)cc1)c1ccccc1 [N-desmethyl tamoxifen]	–	148 to 654 ng/mL	152 to 706 ng/mL	10 to 20 ng/mL	half-life suggested by time to steady state ([5]; human, in vivo): approximately 14 days
CC/C(=C(\c1ccccc1)c1ccc(OCCN(C)C)cc1)c1ccccc1.O=C(O)CC(O)(CC(=O)O)C(=O)O [Tamoxifen citrate, (Z)2-[4-(1,2-diphenyl-1-butenyl)phenoxy]-N,N-dimethylethanamine 2-hydroxy-1,2,3-propanetricarboxylate (1:1)]	–	–	–	–	antiestrogenic properties (estrogen receptors [6]): potent antiestrogenic properties
CC/C(=C(\c1ccccc1)c1ccc(OCCN(C)C)cc1)c1ccccc1 [Tamoxifen]	50%	67 to 183 ng/mL	71 to 183 ng/mL	35 to 45 ng/mL	DMBA-induced tumors in situ [7]: causes the regression; terminal elimination half-life ([5]; biphasic decline in plasma): 120 to 170 h
